Test results taken from patent US20240216357A1 (SICHUAN HUIYU PHARMACEUTICAL CO., LTD., priority 2021, published 2024).
Counter-ions that a name gives are not always drawn. Like-named read-outs stand apart in the source and are kept apart here.

How the values were obtained:
LSD1 = LSD1 (Homo sapiens (Human), UniProt O60341); assay: LSD1 enzyme activity detection (HTRF); type: biochemical; conditions: read-out: Inhibition of enzymatic activity of LSD1 IC50
NCI-H1417 cells = assay: In vitro cell proliferation detection (CellTiter-Glo, 7 days); type: cell-based; conditions: Homo sapiens, 168 h; NCI-H1417 cells, 7 days, CellTiter-Glo; read-out: NCI-H1417 proliferation inhibition IC50

| Structure (SMILES) | IC50 (LSD1; HTRF, H3K4me1 substrate) | IC50 (NCI-H1417 cells) | IC50 (LSD1) |
| --- | --- | --- | --- |
| N#Cc1ccc(-c2nc(N3CCC(N)CC3)cc(O)c2-c2ccc(OC(F)(F)F)c(F)c2)cc1F [Example 18, 4-(6-(4-aminopiperidin-1-y)-3-(3-fluoro-4-(trifluoromethoxy)phenyl)-4-hydroxypyridin-2-yl)-2-fluorobenzonitrile] | 78.3 nM | 87.2 nM |  |
| N#Cc1ccc(-c2nc(N3CCC(N)CC3)cc(O)c2-c2ccc3oc(=O)[nH]c3c2)cc1F [Example 19, 4-(6-(4-aminopiperidin-1-yl)-4-hydroxy-3-(2-oxo-2,3-dihydrobenzo[d]oxazol-5-yl)pyridin-2-yl)-2-fluorobenzonitrile hydrochloride] | 5.96 nM | > 1000 nM |  |
| N#Cc1ccc(-c2nc(N3CCC(N)CC3)cc(O)c2-c2ccc(N3CCOCC3)cc2)cc1F [Example 21, 4-(6-(4-aminopiperidin-1-yl)-4-hydroxy-3-(4-morpholinophenyl)pyridin-2-yl)-2-fluorobenzonitrile hydrochloride] | 10.5 nM | 38.7 nM |  |
| COc1ccc(-c2c(O)cc(N3CCC(N)CC3)nc2-c2ccc(C#N)c(F)c2)cn1 [Example 22, 4-(6-(4-aminopiperidin-1-yl)-4-hydroxy-6′-methoxy-[3,3′-bipyridine]-2-yl)-2-fluorobenzonitrile] | 9.03 nM | 34.9 nM |  |
| Cc1noc2cc(-c3c(O)cc(N4C5CCC4CC(N)C5)nc3-c3ccc(C#N)c(F)c3)c(F)cc12 (centres unmarked) [Example 24, 4-(6-(3-amino-8-azabicyclo[3.2.1]octane-8-yl)-3-(5-fluoro-3-methylbenzo[d]isoxazol-6-yl)-4-hydroxypyridin-2-yl)-2-fluorobenzonitrile] | 21.5 ± 20.5 nM | 252 nM |  |
| CC(C)(O)C#Cc1ccc(-c2c(O)cc(N3CCC(N)CC3)nc2-c2ccc(C#N)c(F)c2)cc1F [Example 25, 4-(6-(4-aminopiperidin-1-yl)-3-(3-fluoro-4-(3-hydroxy-3-methyl-1-alkynyl-1-yl)phenyl)-4-hydroxypyridin-2-yl)-2-fluorobenzonitrile hydrochloride] | 71.7 nM | 868 nM |  |
| COc1ccc(C#Cc2c(O)cc(N3CCC(N)CC3)nc2-c2ccc(C#N)c(F)c2)cc1F [Example 27] | 77.5 nM | 446 nM |  |
| N#Cc1ccc(-c2nc(N3CCC(N)CC3)cc(O)c2-c2ccc(OC(F)(F)F)c(O)c2)cc1F [Example 29, 4-(6-(4-aminopiperidin-1-yl)-4-hydroxy-3-(3-hydroxy-4-(trifluoromethoxy)phenyl)pyridin-2-yl)-2-fluorobenzonitrile hydrochloride] | 3.38 nM | 11.8 nM |  |
| COc1ccc(-c2c(O)cc(N3CCC[C@@H](N)C3)nc2-c2ccc(C#N)c(F)c2)cc1F [Example 31, (R)-4-(6-(3-aminopiperidin-1-yl)-3-(3-fluoro-4-methoxyphenyl)-4-hydroxypyridin-2-yl)-2-fluorobenzonitrile hydrochloride] | 51 nM | 77.2 nM |  |
| CC(C)(O)Cc1ccc(-c2c(O)cc(N3CCC(N)CC3)nc2-c2ccc(C#N)c(F)c2)c(F)c1 [Example 32, 4-(6-(4-aminopiperidin-1-yl)-3-(2-fluoro-4-(2-hydroxy-2-methylpropyl)phenyl)-4-hydroxypyridin-2-yl)-2-fluorobenzonitrile hydrochloride] | 48.8 nM | 262 nM |  |
| COc1ccc(-c2c(O)cc(N3CCC(N)CC3)nc2-c2ccc(C#N)c(F)c2)c(F)c1F [Example 35, 4-(6-(4-aminopiperidin-1-yl)-3-(2,3-difluoro-4-methoxyphenyl)-4-hydroxypyridin-2-yl)-2-fluorobenzonitrile] | 35.7 nM | 31.8 nM |  |
| COc1ccc(-c2c(O)cc(N3CCC(N)CC3)nc2-c2ccc(C#N)c(F)c2)c(F)c1 [Example 36, 4-(6-(4-aminopiperidin-1-yl)-3-(2-fluoro-4-methoxyphenyl)-4-hydroxypyridin-2-yl)-2-fluorobenzonitrile hydrochloride] | 35.2 nM | 21.2 nM |  |
| COc1ccc(-c2c(O)cc(N3C4CCC3CC(N)C4)nc2-c2ccc(C#N)c(F)c2)cc1O (centres unmarked) [Example 37, 4-(6-(3-amino-8-azabicyclo[3.2.1]octane-8-yl)-4-hydroxy-3-(3-hydroxy-4-methoxyphenyl)pyridin-2-yl)-2-fluorobenzonitrile] | 15.1 nM | 173 nM |  |
| CC(C)(O)COc1ccc(-c2c(O)cc(N3CCC(N)CC3)nc2-c2ccc(C#N)c(F)c2)cc1F [Example 38, 4-(6-(4-aminopiperine-1-yl)-3-(3-fluoro-4-(2-hydroxy-2-methylpropoxy)phenyl)-4-hydroxypyridin-2-yl)-2-fluorobenzonitrile hydrochloride] | 57.6 nM | 179 nM |  |
| CC(C)(O)Cc1ccc(-c2c(O)cc(N3CCC(N)CC3)nc2-c2ccc(C#N)c(F)c2)cc1F [Example 39, 4-(6-(4-aminopiperidin-1-yl)-3-(3-fluoro-4-(2-hydroxy-2-methylpropyl)phenyl)-4-hydroxypyridin-2-yl)-2-fluorobenzonitrile hydrochloride] | 21.5 ± 7.6 nM | 121 nM |  |
| COc1ccc(-c2c(O)cc(N3CCC(N)CC3)nc2-c2ccc(C#N)c(F)c2)cc1N [Example 44] | 12.8 ± 4.6 nM | 28.9 nM |  |

| Structure (SMILES) | IC50 (LSD1; HTRF, H3K4me1 substrate) | IC50 (NCI-H1417 cells) | IC50 (LSD1) |
| --- | --- | --- | --- |
| COc1ccc(-c2c(O)cc(N3CCC(NCC(C)(C)O)CC3)nc2-c2ccc(C#N)c(F)c2)cc1F [Example 45, 2-fluoro-4-(3-(3-fluoro-4-methoxyphenyl)-4-hydroxy-6-(4-((2-hydroxy-2-methylpropyl)amino)piperidin-1-yl)pyridin-2-yl)benzonitrile hydrochloride] | 184 nM | 160 nM |  |
| N#Cc1ccc(-c2nc(N3CCC(N)CC3)cc(O)c2-c2cc(O)c(F)c(F)c2)cc1F [Example 46, 4-(6-(4-aminopiperidin-1-yl)-3-(3,4-difluoro-5-hydroxyphenyl)-4-hydroxypyridin-2-yl)-2-fluorobenzonitrile] | 2 ± 1.4 nM | 96.4 nM |  |
| COc1ccc(-c2c(O)cc(N3CCC(N)CC3)nc2-c2ccc(C#N)c(F)c2)cc1C#N [Example 47, 4-(6-(4-aminopiperidin-1-yl)-3-(3-cyano-4-methoxyphenyl)-4-hydroxypyridin-2-yl)-2-fluorobenzonitrile] | 2.6 ± 1.3 nM | 106 nM |  |
| N#Cc1ccc(-c2nc(N3CCC(N)CC3)cc(O)c2-c2ccc(C#N)c(F)c2)cc1F [Example 48, 4,4′-(6-(4-aminopiperidin-1-yl)-4-hydroxypyridine-2,3-diyl)bis(2-fluorobenzonitrile)] | 57.8 nM | 290 nM |  |
| COCCNC1CCN(c2cc(O)c(-c3ccc(OC)c(F)c3)c(-c3ccc(C#N)c(F)c3)n2)CC1 [Example 49, 2-fluoro-4-(3-(3-fluoro-4-methoxyphenyl)-4-hydroxy-6-(4-((2-methoxyethyl)amino)piperidin-1-yl)pyridin-2-yl)benzonitrile] | 61.4 nM | 228 nM |  |
| COc1ccc(-c2c(O)cc(N3CC[C@@H](N)[C@H](OC)C3)nc2-c2ccc(C#N)c(F)c2)cc1F [Example 51, 4-(6-((3R,4R)-4-amino-3-methoxypiperidin-1-yl)-3-(3-fluoro-4-methoxyphenyl)-4-hydroxypyridin-2-yl)-2-fluorobenzonitrile] | 64 ± 20 nM | 88.2 nM |  |
| COc1ccc(-c2c(O)cc(N3CC4CNCC4C3)nc2-c2ccc(C#N)c(F)c2)cc1F (centres unmarked) [Example 52, 2-fluoro-4-(3-(3-fluoro-4-methoxyphenyl)-6-(hexahydropyrrolo[3,4-c]pyrrole-2(1H)-yl)-4-hydroxypyridin-2-yl)benzonitrile hydrochloride] |  | 167 nM | 100 nM |
| CNC1CCN(c2cc(O)c(-c3ccc(OC)c(F)c3)c(-c3ccc(C#N)c(F)c3)n2)CC1 [Example 55, 2-fluoro-4-(3-(3-fluoro-4-methoxyphenyl)-4-hydroxy-6-(4-(methylamino)piperidin-1-yl)pyridin-2-yl)benzonitrile] | 2.3 ± 0.7 nM | 10 ± 2.9 nM |  |
| COc1ccc(-c2c(O)cc(N3CCC(N(C)C)CC3)nc2-c2ccc(C#N)c(F)c2)cc1F [Example 56, 4-(6-(4-(dimethylamino)piperidin-1-yl)-3-(3-fluoro-4-methoxyphenyl)-4-hydroxypyridin-2-yl)-2-fluorobenzonitrile] | 2.9 ± 1.2 nM | 4.88 nM |  |
| N#Cc1ccc(-c2nc(N3CCC(N)CC3)cc(O)c2-c2ccc(F)c(O)c2)cc1F [Example 58, 4-(6-(4-aminopiperidin-1-yl)-3-(4-fluoro-3-hydroxyphenyl)-4-hydroxypyridin-2-yl)-2-fluorobenzonitrile] | 1.3 ± 0.4 nM | 7.26 nM |  |
| N#Cc1ccc(-c2nc(N3CCC(N)CC3)cc(O)c2-c2ccc(Cl)c(O)c2)cc1F [Example 59, 4-(6-(4-aminopiperidin-1-yl)-3-(4-chloro-3-hydroxyphenyl)-4-hydroxypyridin-2-yl)-2-fluorobenzonitrile] | 0.7 ± 0.3 nM | 2.35 nM |  |
| Cc1ccc(-c2c(O)cc(N3CCC(N)CC3)nc2-c2ccc(C#N)c(F)c2)cc1O [Example 60] | 0.4 ± 0.2 nM | 0.49 nM |  |
| CN(CCCN)c1cc(O)c(-c2ccc(Cl)c(O)c2)c(-c2ccc(C#N)c(F)c2)n1 [Example 61, 4-(6-((3-aminopropyl)(methyl)amino)-3-(4-chloro-3-hydroxyphenyl)-4-hydroxypyridin-2-yl)-2-fluorobenzonitrile] | 26.4 nM | 387 nM |  |
| COc1ccc(-c2c(O)cc(N(C)CCCN)nc2-c2ccc(C#N)c(F)c2)cc1O [Example 62] | 21 nM | 224 nM |  |
| Cc1ccc(-c2c(O)cc(N(C)CCCN)nc2-c2ccc(C#N)c(F)c2)cc1O [Example 63, 4-(6-((3-aminopropyl)(methyl)amino)-4-hydroxy-3-(3-hydroxy-4-methylphenyl)pyridin-2-yl)-2-fluorobenzonitrile hydrochloride] | 5.1 ± 0.4 nM | 192 nM |  |
